Measured values: patent publication US20110166078A1, “OLIGOSACCHARIDE COMPOUNDS FOR USE IN MOBILISING STEM CELLS” (ENDOTIS PHARMA, priority 2008, published 2011)

What was measured:
[1] = system: PDGF-β-induced NHDF proliferation; assay: PDGF-β-induced NHDF proliferation assay; format: cell-based, human; conditions: PDGF-β 10 ng/ml; FIGS. 8-12
Description: (§1) The activities of the compounds of the present invention were tested using a proliferation assay, such as the one described by N. Ali et al., J Pharmacol Sci, 2005, 98, 130-141. A defined number of cells is seeded in each well of a culture plate. In order to stimulate cell proliferation, a growth factor is added in some wells, while others remain unstimulated (basal proliferation conditions). To monitor the effects of substances of interest (oligosaccharides compounds according to the present invention) on basal and growth factor-induced cell proliferation, substances of interest are added at different concentrations (i.e. 0.1, 0.3, 1, 3, 10 or 30 μM) in presence or absence of the growth factor, respectively. After an incubation period of 24 hours, the total number of cells is estimated in all samples (generally through an indirect method, such as incorporation of radioactivity into the newly synthesised DNA or colorimetric assays based on cellular enzyme activities or metabolite production). The total number of cells for the control sample in which no substance of interest nor growth factor have been added is set to 1. The total number of cells in all the other samples is compared to this value in order to obtain the relative proliferation index.
Typically, cells are seeded in 48 or 96-well plates. After 2 h (i.e. the time required for cells to adhere to the support) the normal culture media is replaced by a minimal essential culture media in which cells are grown for 24 h (starvation period). This step is used to reduce cell growth (cell metabolism is slowed down in order to better visualise the growth factor stimulation effect) before adding an angiogenic protein, such as a growth factor i.e. FGF-2 or PDGF-β. No growth factor is added in basal proliferation conditions (independently of the presence or absence of the oligosaccharide of the present invention). To evaluate the inhibition of the oligosaccharide compounds according to the present invention on cell proliferation, the angiogenic protein (growth factor) is added at a fixed concentration (from 5 ng/ml to 10 ng/ml) with increasing amounts of oligosaccharide compounds (0.1, 0.3, 1, 3, 10 or 30 μM), which allows the IC50 value to be estimated (i.e. the oligosaccharide concentration at which the stimulatory effect of the growth factor is inhibited by 50%).
(§2) Following addition of the angiogenic protein (growth factor) over a 24 h stimulation period, a commercial reagent containing a substrate for a cellular enzyme is added and incubated for couple of hours. The degradation of the substrate by the enzyme leads to the production of a coloured product which is titrated by absorbance measurement. […]

[2] = system: FGF-2-induced NHDF (Normal Human Dermal Fibroblast) cell proliferation; assay: FGF-2-induced NHDF proliferation assay; format: cell-based; conditions: compound 0.1 to 30 μM
Description: as §1
Typically, cells are seeded in 48 or 96-well plates. After 2 h (i.e. the time required for cells to adhere to the support) the normal culture media is replaced by a minimal essential culture media in which cells are grown for 24 h (starvation period). This step is used to reduce cell growth (cell metabolism is slowed down in order to better visualise the growth factor stimulation effect) before adding an angiogenic protein, such as a growth factor i.e. FGF-2 or PDGF-β. No growth factor is added in basal proliferation conditions (independently of the presence or absence of the oligosaccharide of the present invention). […]
as §2
In the following experiments the effects of compounds 240 and 241 (concentrations from 0.1 to 30 μM) were evaluated on FGF-2-induced NHDF (Normal Human Dermal Fibroblast) cell proliferation. […]

With C#CCCCOC1OC(COS(=O)(=O)[O-])C(OC2OC(C(=O)[O-])C(OC3OC(COS(=O)(=O)[O-])C(OC4OC(C(=O)[O-])C(OC5OC(COS(=O)(=O)[O-])C(OC6OC(C(=O)[O-])C(OC7OC(COS(=O)(=O)[O-])C(OC8OC(C(=O)[O-])C(OC9OC(COS(=O)(=O)[O-])C(OC%10OC(C(=O)[O-])C(OCc%11ccccc%11)C(OCc%11ccccc%11)C%10OS(=O)(=O)[O-])C(OCc%10ccccc%10)C9NS(=O)(=O)[O-])C(OCc9ccccc9)C8OS(=O)(=O)[O-])C(OCc8ccccc8)C7NS(=O)(=O)[O-])C(OCc7ccccc7)C6OS(=O)(=O)[O-])C(OCc6ccccc6)C5NS(=O)(=O)[O-])C(OCc5ccccc5)C4OS(=O)(=O)[O-])C(OCc4ccccc4)C3NS(=O)(=O)[O-])C(OCc3ccccc3)C2OS(=O)(=O)[O-])C(OCc2ccccc2)C1NS(=O)(=O)[O-].[Na+].[Na+].[Na+].[Na+].[Na+].[Na+].[Na+].[Na+].[Na+].[Na+].[Na+].[Na+].[Na+].[Na+].[Na+].[Na+].[Na+].[Na+].[Na+].[Na+] (stereo not shown) [Compound 241] the “inhibition of PDGF-β-induced NHDF proliferation” value [1] was “inhibit PDGF-β proliferation (starting in the micromolar range)”, the “inhibition of FGF-2-induced fibroblast proliferation” value ([2]; FGF-2 5 ng/ml, FIGS. 6-7) was “inhibit FGF-2-induced fibroblast proliferation (starting in the micromolar range)” and the “basal NHDF proliferation” value ([2]; control conditions, no growth factor) was “did not seem to be affected”.
For C#CCCCOC1OC(COS(=O)(=O)[O-])C(OC2OC(C(=O)[O-])C(OC3OC(COS(=O)(=O)[O-])C(OC4OC(C(=O)[O-])C(OCc5ccccc5)C(OCc5ccccc5)C4OS(=O)(=O)[O-])C(OCc4ccccc4)C3NS(=O)(=O)[O-])C(OCc3ccccc3)C2OS(=O)(=O)[O-])C(OCc2ccccc2)C1NS(=O)(=O)[O-].[Na+].[Na+].[Na+].[Na+].[Na+].[Na+].[Na+].[Na+] (stereo not shown) [Compound 237], the “inhibition of PDGF-β-induced NHDF proliferation” value [1] was “inhibit PDGF-β proliferation (starting in the micromolar range)”.
